Entries after “also recorded” stand apart in the source; their conditions may differ. Counter-ions that a name gives are not always drawn. Like-named read-outs stand apart in the source and are kept apart here.
Columns and labels:
[1] = tested on: mice (acetic acid writhing); assay: Acetic Acid Mouse Writhing Test (analgesic effects); type: in vivo, male CD-1 mice; conditions: sc, 0.25 h, subcutaneous, acetic acid i.p. 15 min post drug, read-out: ED50 (dose required to reduce the number of writhes by 50%)
Description: Acetic Acid Mouse Writhing Test
The analgesic effects of the test compounds were determined in mice by use of the acetic acid writhing test described by B. A. Whittle, Brit. J. Pharmacol., 22: 246 (1964). In this test at least three groups of 5 male CD-1 mice each were given subcutaneous doses of the test drug dissolved in distilled water. In all cases 0.4 milliliters of a 0.5% V/V acetic acid in distilled water solution was administered intraperitoneally 15 minutes post drug. The number of writhes in a 20 minute interval beginning 5 minutes after the acetic acid injection were determined and compared with the number of writhes in a control group which had received only acetic acid.
Percent inhibition of writhing was calculated as: [formula]
The ED50 dose, i.e., the dose required to reduce the number of writhes by 50%, was determined graphically from a plot of % inhibition as a probit verus log dose. Confidence limits of 95% were calculated on the basis of those results falling in the range 16-84% inhibition. See Litchfield, J. T. and Wilcoxon, F., J. Pharmacol. Exp. Ther., 96, 99-113 (1949).

[2] = tested on: rats (effect of morphine, tail flick); assay: Evaluation of Narcotic Antagonist Activity (modified rat tail flick test, antagonism of morphine); type: in vivo, male albino Wistar rats
Description: Evaluation of Narcotic Antagonist Activity
The narcotic antagonist effect of the test compound was determined by a modification of the rat tail flick procedure of Harris and Pierson (J. Pharmacol. Exp. Ther., 143:141 [1964]).
Male albino Wistar rats (100-120 g) were used for this study. A rat's tail is so placed so as to cover a photocell. Heat is applied by a lamp in a reflector with a timer being connected to the lamp and photocell so that the timer goes on when the light is turned on and is turned off when the photocell is uncovered. A rheostat, incorporated into a heating lamp is used to adjust the intensity of the light falling on the tail of the rat such that the rat's control reaction time is from two to four seconds. Animals with a control reaction time outside this range are rejected. The rheostat adjustment is made only if a significant proportion (1 out of every 10 rats) of the reaction times are outside the range of two to four seconds. Groups of 5 rats were used, and two control times were determined at 60 and 30 minutes prior to subcutaneous injection of the drug.
At least thirty minutes after the last control run the test drug was given […]. This was followed ten minutes later by an ED80 dose of morphine subcutaneously. The animals were retested at 20 minutes after the morphine injection. Control animals were given vehicle and morphine only. The data were calculated as follows: [formula]
The data were plotted on log-probit paper and AD50 values, i.e., the dose required to inhibit the effect of morphine by 50% within 95% confidence limits, were determined by the method of Litchfield and Wilcoxon.

[3] = tested on: Physically Morphine Dependent Rats; type: in vivo
Description: (§1) Substitution Studies in Physically Morphine Dependent Rats
(§2) Rats were made physically dependent by continuous infusion of morphine through an indwelling intraperitoneal cannula as has been described (D. G. Teiger, J. Pharmacol. Exp. Ther., 190 408, 1974). Then one day substitution of either TR-5257 or TR-5379 was studied. Both drugs were infused at the rate of 125 mg/kg/day.

[4] = tested on: Physically Morphine Dependent Rats; assay: Incidence of side effects during substitution in morphine dependent rats
Description: as §1, §2
*Post termination of morphine infusion and during test drug infusion.

drug dependent monkeys = assay: Substitution for morphine in drug dependent monkeys; type: in vivo
[5] = +6 hr post termination of morphine infusion, during test drug infusion

In the case of `C=C1C[C@H](C)[C@H]2[C@H]3Cc4ccc(O)cc4[C@@]2(CCN3CC2CCC2)C1` [TR-5379, 17-Cyclobutylmethyl-3-hydroxy-8β-methyl-6-methylene morphinane], the ED50 [1] is reported as 0.18 mg/kg, the morphine antagonist action ([2]; compared with corresponding 6-keto analog) is reported as “more potent morphine antagonist action than its corresponding 6-keto analog” and the dose-response curve ([2]; compared with corresponding 6-keto analog, test not named) is reported as “steeper dose-response curve”. The substitution for morphine ([3]; rat, in vivo) was “did not substitute for morphine; also recorded: does not substitute for morphine”, the “Mean % Change in Weight From Termination of Morphine Infusion” value (“Mean % Change in Weight From Termination” below) ([3]; rat, in vivo, 125 mg/kg/day) was -11.3% and the “Incidence of Aggressive” value [4, 5] was 1/6. The “Incidence of Diarrhea” value [4, 5] was 4/6, the “Incidence of Pilo erection” value [4, 5] was 6/6 and the “Incidence of Diarrhea” value ([4]; +24 hr) was 2.6. For the same compound, the “Incidence of Pilo erection” value ([4]; +24 hr) was 6/6, the “Incidence of Diarrhea” value ([4]; +30 hr) was 2/6 and the “Incidence of Pilo erection” value ([4]; +30 hr) was 4/6. For the same compound, the substitution for morphine (drug dependent monkeys) was “did not substitute for morphine”.
Work on `C=C1C[C@H](C)[C@H]2[C@H]3Cc4ccc(OC)cc4[C@@]2(CCN3CC2CC2)C1` [TR-5412, 17-cyclopropylmethyl-3-methoxy-8β-methyl-6-methylene-morphinane] yielded an ED50 [1] of 3.2 mg/kg.
`C=C1CC[C@H]2[C@H]3Cc4ccc(O)cc4[C@@]2(CCN3CC2CCC2)C1` [TR-5566, 17-Cyclobutylmethyl-3-hydroxy-6-methylene-morphinane Hydrochloride Acetone Solvate] was tested, and the ED50 [1] was 0.09 mg/kg.
Work on `C=C1C[C@H](C)[C@H]2[C@H]3Cc4ccc(OC)cc4[C@@]2(CCN3CC2CCC2)C1.Cl` [TR-5377, 17-cyclobutylmethyl-3-methoxy-8β-methyl-6-methylene-morphinane Hydrochloride] yielded an ED50 [1] of 6.42 mg/kg.
`C=C1C[C@H](C)[C@H]2[C@H]3Cc4ccc(O)cc4[C@@]2(CCN3CC2CC2)C1` [TR-5413, 17-Cyclopropylmethyl-3-hydroxy-8β-methyl-6-methylene-morphinane] was tested, and the ED50 [1] was 1.7 mg/kg.
For `C=C1CC[C@H]2[C@H]3Cc4ccc(OC)cc4[C@@]2(CCN3CC2CCC2)C1` [TR-5610, 17-Cyclobutylmethyl-3-methoxy-6-methylene-morphinane Tartrate Ethanol Solvate], the ED50 [1] was 1.6 mg/kg and the “AD50 (dose required to inhibit the effect of morphine by 50%)” value ([2]; rat, test drug intraperitoneal, ED80 dose of morphine s.c. 10 min later) was “IA @ 10”.
For `CN1CC[C@]23c4c5ccc(O)c4O[C@H]2[C@@H](O)C=C[C@H]3[C@H]1C5` [Morphine], the “Mean % Change in Weight From Termination” value ([3]; +1 day (test drug infusion stopped here), 125 mg/kg/day for 1 day, morphine: infusion schedule 50-200 mg/kg/day) was -16.8%, the “Mean % Change in Weight From Termination” value ([3]; +2 days, 125 mg/kg/day for 1 day, morphine: infusion schedule 50-200 mg/kg/day) was -12.7% and the “Mean % Change in Weight From Termination” value ([3]; +3 days, 125 mg/kg/day for 1 day, morphine: infusion schedule 50-200 mg/kg/day) was -7.8%. The “Mean % Change in Weight From Termination” value ([3]; +4 days, 125 mg/kg/day for 1 day, morphine: infusion schedule 50-200 mg/kg/day) was -1.6%.
In the case of `C[C@H]1CC(=O)C[C@]23CCN(CC4CCC4)[C@H](Cc4ccc(O)cc42)[C@H]13.O=C(O)C(O)C(O)C(=O)O` [TR-5257, 17-Cyclobutylmethyl-3-hydroxy-8β-methylmorphinan-6-one Tartrate], the ED50 [1] is reported as 0.14 mg/kg, the “loss in weight during substitution (in words)” value ([3]; rat, in vivo) is reported as “appeared to prevent the marked loss in weight observed in the morphine controls” and the substitution for morphine ([3]; rat, in vivo) is reported as “ambiguous, with indication of partial substitution”. For the same compound, the “Mean % Change in Weight From Termination” value ([3]; rat, in vivo, 125 mg/kg/day) was -2.64%, the “Incidence of Aggressive” value [4, 5] was 1/8 and the “Incidence of Diarrhea” value [4, 5] was 4/8. The “Incidence of Pilo erection” value [4, 5] was 8/8, the “Incidence of Wet dog shakes” value [4, 5] was 6/8 and the “Incidence of Pilo erection” value ([4]; +24 hr) was 4/8. The “Incidence of Tremors” value ([4]; +24 hr) was 1/4, the “Incidence of Pilo erection” value ([4]; +30 hr) was 4/8 and the withdrawal symptoms ([4]; during period of drug substitution, 125 mg/kg/day) was “marked withdrawal symptoms”.
Compound `C=C1CC[C@H]2[C@H]3Cc4ccc(O)cc4[C@@]2(CCN3CC2CC2)C1` [TR-5609, 17-Cyclopropylmethyl-3-hydroxy-6-methylene-morphinan] has an ED50 [1] of 0.38 mg/kg.
